The results in this text go back to patent US20210311061A1, “USE OF TROP-2 AS PREDICTIVE MARKER OF RESPONSE TO ANTI-TUMOR THERAPY BASED ON INHIBITORS OF CD9, AKT AND MOLECULES OF THE TETRASPANIN SIGNALLING NETWORK” (ONCOXX BIOTECH S.R.L., priority 2012, published 2021).

Data set [1] deals with MTE 4-14 cells transfected with Trop-2. The experiment in a line: In vitro cell-growth assay, MTE 4-14 cells transfected with Trop-2. The format is cell-based, murine. The note with it: siRNA transfection, growth curves, FIG. 7d. On the procedure: (§1) MTE 4-14 cells transfected with the empty vector or with Trop-2 were seeded at 1.5-3×10^3 cells/well in 96-well plates (five replica wells per data point). Cell numbers were quantified by the MTT colorimetric assay (Roche Molecular Biochemicals, Mannheim, Germany) or by staining with crystal violet. Cell numbers were normalised against a reference standard curve of serially diluted cell samples.
(§2) Cells were treated with 50-100-200-400 nM A6730_SIGMA (Sigma Technical Company, St Louis, Mo. 63178-9916) or with 400 nM MK-2206 (Selleck Chemicals, Houston, Tex.) to inhibit Akt. Stock solutions were prepared in DMSO and diluited in ethanol or water, with the final concentration of DMSO and ethanol never exceeding 0.1% and 1% respectively. Control cells received vehicle alone. A second treatment was performed 24 hours after seeding.
(§3) The corresponding constructs were transiently transfected into MTE 4-14 cells, and their effect on cell proliferation was evaluated. The levels of transcripts after silencing were quantified by real-time RT-PCR. siRNAs directed against irrelevant targets were used as negative controls, chosen after thorough verification of the absence of spurious effects on cell growth. […]

In data set [2] the test system is MTE 4-14 cells transfected with the empty vector. The experiment in a line: In vitro cell-growth assay, MTE 4-14 cells transfected with the empty vector. The data set is classed as cell-based, murine. The note with it: siRNA transfection, growth curves, FIG. 7d. On the procedure: as §1, §2, §3
Data set [3] has as its system MTE 4-14 cells transfected with Trop-2. Kind of data set: Xenografts in athymic nude mice, MTE 4-14 transfected with Trop-2. The settings on record: MTE 4-14/Trop-2; 0.35 mg/mouse intraperitoneally every day; in vivo growth curves. On the procedure:
(§4) MTE 4-14 immortalized cell line transfected with Trop-2 (Alberti, Nutini et al. 1994), or Colo205 colon cancer cells, endogenously expressing Trop-2, were injected subcutaneously (4×10^6 cells/injection) into nude mice groups (8 weeks females, CD1-Foxn1 nu/nu mice (Charles River Laboratories, Calco, Lecco, Italy). MTE 4-14 cells transfected with Trop-2 were co-injected with Matrigel 1:3 vol/vol (growth factor reduced matrix, BD Biosciences, Franklin Lakes, N.J. USA). A stock solution of MK-2206 in DMSO was diluted at the time of use in apyrogenic saline solution, to a final concentration of 0.7 mg/ml, and the drug was administered intraperitoneally at a dose of 0.35 mg/mouse every day, starting from the time in which the tumors became palpable. Control group mice were treated with the vehicle alone. Mice were visually inspected every 5-7 days and the major and minor diameters of the experimental tumors were measured. The tumor volume was calculated using the formula for the volume of ellipsoid (Dxd2/2). MTE 4-14 cells transfected with the empty vector were not tumorigenic in this model. […]

Data set [4] has as its system Colo205 colon cancer cells. Kind of data set: Xenografts in athymic nude mice, Colo205. The settings on record: 0.35 mg/mouse intraperitoneally every day, in vivo growth curves. On the procedure: as §4
Data set [5] relates to Trop-2. Kind of data set: Precipitation of cholesterol from BRIJ lysate, precipitation of Trop-2. The note with it: MTE4-14 cells transfected with Trop-2; Western blot, FIG. 3f. On the procedure: Cells were also harvested by scraping and lysed in buffer with 1% BRIJ. The supernatant was mixed with either 1/10 (vol/vol) methanol (control) or 1/10 (vol/vol) 10% digitonin in methanol, and incubated on ice for 10 min. Cell membranes were recovered by centrifugation at 12,000 g for 15 min. The pellet was washed in cold acetone, resuspended in Laemmli buffer and analysed by Western blotting.
Background: In western blotting, separated proteins are transferred to a membrane and probed.

For a further data set, the system named is Akt. The experiment in a line: Western blot of Akt phosphorylation in MTE 4-14 transfectants with or without PMA. The format is cell-based, murine. On the procedure:
Western blotting was performed as previously described (El Sewedy, Fornaro et al. 1998). In brief, cell lysates were analyzed by electrophoresis on denaturing polyacrylamide gel (SDS-PAGE) and transfered onto nitrocellulose filters. Filters were incubated with the relevant primary antibodies (Abcam, Cambridge, UK; Santa Cruz) in TBS with 5% non-fat dried milk. Hybridized filters were washed in TBS, 0.1% Tween-20. […] Signal intensity was quantified with NIH-image 1.62, using as reference a Kodak gray-scale standards power curve (www.kodak.com).

Data set [6] deals with Trop-2. The experiment in a line: Depletion of cholesterol from cell membranes, release of Trop-2. The settings on record: MTE4-14 cells transfected with Trop-2; 10 mM, 37° C., 45 min; Western blot, FIG. 3f. The data set is classed as cell-based. On the procedure:
To deplete cell membranes of cholesterol, intact cells were washed three times in PBS to remove serum and incubated in DMEM with 10 mM methyl-β-cyclodextrin at 37° C. for 45 min. Control cells were processed in parallel in the absence of methyl-β-cyclodextrin. Samples were centrifuged at 2000 g to remove cells and cell debris. Proteins in the supernatant were precipitated in trichloroacetic acid and analysed by Western blotting.

In data set [7] the target is T1, Trop-2 (human, wild-type) (human, UniProt P09758 27-323).
T1 construct: whole, on cells; Full-length protein expressed in cells (MTE 4-14 transfectants, MCF7); also called T2
T1 sequence (looked up): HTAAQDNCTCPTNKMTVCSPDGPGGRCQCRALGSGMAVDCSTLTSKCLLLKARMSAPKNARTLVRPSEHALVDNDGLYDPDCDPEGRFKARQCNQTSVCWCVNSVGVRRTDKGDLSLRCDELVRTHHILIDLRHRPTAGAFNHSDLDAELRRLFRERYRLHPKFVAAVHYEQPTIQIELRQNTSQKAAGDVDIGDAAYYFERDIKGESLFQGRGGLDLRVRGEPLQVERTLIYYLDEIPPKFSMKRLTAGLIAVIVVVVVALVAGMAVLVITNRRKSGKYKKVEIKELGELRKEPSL
The experiment in a line: confocal microscopy of intact cells, co-capping and cell footprints, MTE 4-14 cells transfected with Trop-2. The text has this:
FIG. 3. Interaction of Trop-2 and PKCα with tetraspanin molecules and CD9. (a-d) Confocal microscopy analysis of intact cell membranes (a), membrane areas showing co-capping (b), footprints of cell membranes (c, d) of MTE 4-14 cells transfected with Trop-2 (a-c, d top) or with the empty vector (d bottom) stained simultaneously with anti-Trop-2 and anti-CD9 (member of tetraspanin webs) or anti-caveolin (negative control) (a-c) or anti-CD9 and anti PKCα (d) conjugated with fluorescent molecules. Areas of colocalization are indicated by arrowheads. (e) Co-immunoprecipitation (IP) of Trop-2, PKCα, CD9 and tetraspanins. Immunoprecipitation was performed using primary antibodies against murine CD9, CD81 and CD151 (MTE 4-14cells) or human CD9, CD82 and CD151 (MCF7 cells); the presence of Trop-2 and PKCα in immunoprecipites was detected by Western blot. IP with anti-Trop-2: positive control. (f) Trop-2/cholesterol association. Release of Trop-2 in the culture medium after treatment with methyl-β-cyclodextrin (MβCD) (left). Precipitation of Trop-2 with digitonin from BRIJ lysate (right). The treatments were performed on MTE4-14 cells transfected with Trop-2, and the presence of Trop-2 in the soluble and insoluble fractions was assessed by Western blot.

For the molecule “anti-CD9 siRNA: anti-CD9 siRNA with target sense sequence 5′ GGTAGCAAGT GCATCAAAT 3′, expressed as hairpin RNA from pSUPER vector (sense GGTAGCAAGTGCATCAAAT; antisense ATTTGATGCACTTGCTACC; listed as Mus musculus)”, in data set [1], the “proliferation of MTE 4-14 cells expressing Trop-2” value was “striking reduction”. In data set [2], the “proliferation of Trop-2-negative cells” value is listed as “essentially no impact”.

With `NC1(c2ccc(-c3nc4ccn5c(=O)[nH]nc5c4cc3-c3ccccc3)cc2)CCC1` [MK-2206], the “Difference between control and treated tumors, P (two-way ANOVA)” value in data set [3] and in data set [4] was under 0.0001 in each case.

As for `C[C@@H]1CC[C@@]2(OC1)O[C@H]1[C@@H](O)[C@H]3[C@@H]4CC[C@H]5C[C@@H](O[C@@H]6O[C@H](CO)[C@H](O[C@@H]7O[C@H](CO)[C@@H](O)[C@H](O[C@@H]8OC[C@@H](O)[C@H](O)[C@H]8O)[C@H]7O[C@@H]7O[C@H](CO)[C@H](O)[C@H](O[C@@H]8O[C@H](CO)[C@@H](O)[C@H](O)[C@H]8O)[C@H]7O)[C@H](O)[C@H]6O)[C@H](O)C[C@]5(C)[C@H]4CC[C@]3(C)[C@H]1[C@@H]2C` [digitonin], the “precipitation of Trop-2 from lysates of cell membranes in BRIJ” value in the data set with Trop-2 [5] is recorded as “precipitation of Trop-2”.

In the case of `CCCCCCCCCCCCCC(=O)O[C@@H]1[C@@H](C)[C@@]2(O)[C@@H](C=C(CO)C[C@]3(O)C(=O)C(C)=C[C@@H]23)[C@@H]2C(C)(C)[C@]12OC(C)=O` [PMA], the Akt-S473 phosphorylation result in the data set with Akt (MTE 4-14 cells transfected with Trop-2, FIG. 6b) is on record as “reduction, further increased by PMA”. Also, the Akt-T308 phosphorylation levels result with Akt (MTE 4-14 transfectants, FIG. 6b) is on record as “no effect”.

On to methyl-β-cyclodextrin, for which the “release of Trop-2 in the culture medium” value in the data set with Trop-2 [6] is reported as “induce the release of Trop-2 in the culture medium”.

B1: caveolin (other, murine, UniProt P49817 2-178, looked up)
chain: SGGKYVDSEGHLYTVPIREQGNIYKPNNKAMADEVTEKQVYDAHTKEIDLVNRDPKHLNDDVVKIDFEDVIAEPEGTHSFDGIWKASFTTFTVTKYWFYRLLSTIFGIPMALIWGIYFAILSFLHIWAVVPCIKSFLIEIQCISRVYSIYVHTFCDPLFEAIGKIFSNIRISTQKEI
notes: Lipid-raft marker used as negative control in the confocal, co-capping and footprint analyses; also called caveolin-1
As for B1, the binding result in data set [7] is “no binding”.
